Here are results for 12 substances from PMC8834644, “Effect of FKBP12-Derived Intracellular Peptides on Rapamycin-Induced FKBP–FRB Interaction and Autophagy” (Cells, 2022).

The test system of data set [1] is rapamycin-induced FKBP–FRB interaction within HEK293 cells. Nature of the data set: NanoBiT luciferase structural complementation assay of rapamycin-induced FKBP–FRB interaction. It counts as cell-based, human. The settings on record: HEK293 co-transfected with FRB-LgBit and FKBP-SmBiT, 200 nM rapamycin, RLU for 60 min, qualitative; for peptide concentration inhibiting rapamycin-induced FKBP–FRB interaction: peptide added with rapamycin plus booster after 30 min, at least five determinations in triplicates. The method, then: The protein complementation assay technology used herein, NanoBiT® (Promega, Madison, WI, USA), was commercially designed to investigate inducible PPI under in vivo cellular conditions, allowing the analyses of distinctive molecules that, introduced within cells, can modify inducible PPI [58]. All experimental procedures were performed according to the manufacturer’s recommendations. Briefly, transient transfections were performed with NanoBiT® PPI Control Pair FKBP–FRB (Promega, Madison, WI, USA; catalog number N2016), containing the FRB-LgBit and FKBP-SmBiT vectors (NanoBiT® PPI Control Pair FKBP, FRB; catalog number N2016, Promega, Madison, WI, USA). Plasmids were co-transfected into HEK293 cells using FuGENE® 6 Transfection Reagent (Promega, Madison, WI, USA), according to the recommendations of the manufacturers. Cells transfected in the absence of DNA were the negative controls of the experiments, whereas the green fluorescent protein expressing pEGFP plasmid (Clontech, Mountain View, CA, USA; 100 ng) was used to evaluate transfections efficiencies; after 30 h of transfection, the pEGFP expression was easily assessed by fluorescent microscopy (data not shown).
HEK293 cells (approximately 10^4) cultured in a 96-well plate in DMEM high-glucose medium, supplemented with 10% FBS and 1% penicillin/streptomycin, were transiently co-transfected with 200 ng of both […] and FKBP-SmBiT vectors (NanoBiT® PPI Control Pair FKBP, FRB; catalog number N2016, Promega, Madison, WI, USA); this final plasmid concentration of 200 ng was defined previously testing different plasmid concentrations, as shown in Supplemental Figure S1A. The transfected cells were incubated in Opti-MEM® I Reduced Serum Medium culture medium (Gibco, Gaithersburg, MD, USA) for 2 h and then treated with 200 nM of rapamycin (BPSBioscience, CAS 53123-88-9, San Diego, CA, USA) diluted in Opti-MEM®/0.01% DMSO (Gibco, Gaithersburg, MD, USA; this rapamycin concentration of 200 nM was defined previously testing different concentrations, as shown in Supplemental Figure S1B). […] Graphs of RLU versus time were plotted by GraphPad Prism (GraphPad, San Diego, CA, USA). Control experiments were conducted using VFD10 and VFD7 without cpp covalently bound, in addition to cpp alone (Supplemental Figure S2).

For data set [2] the following is noted: after 30 min of internalization into Chinese hamster ovarian cells; random control peptide; cited from earlier work. As for the experimental part:
Hundreds of InPeps have been described from the most diverse sources, including plants, yeast, fish, and mammals. Despite of the strong evidence that InPeps are natural constituents of the cells, the expected short half-life of peptides within cells full of peptidases contests their stability and biological significance. […] For example, after 30 min of internalization into Chinese hamster ovarian cells, the ...

Data set [3] relates to PPI between cytosolic brain proteins and calmodulin (CaM). The note with it: surface plasmon resonance; cited from earlier work. The method, then: (§1) VFD10 and VFD7 (10–50 µM) were shown by surface plasmon resonance to inhibit PPI between cytosolic brain proteins and both calmodulin (CaM) and 14-3-3 epsilon. VFD7 (5–20 µM) introduced into the HEK293 cells by means of transient membra ...
Background: SPR reads the build-up and loss of mass on a sensor chip optically.

Data set [4] relates to PPI between cytosolic brain proteins and 14-3-3 epsilon. The note with it: surface plasmon resonance; cited from earlier work. As for the experimental part:
as §1

The test system of data set [5] is thimet oligopeptidase and CaM. The settings on record: in vitro surface plasmon resonance; cited from earlier work.
Data set [6] relates to HEK293 cells. The settings on record: introduced into HEK293 cells by transient membrane permeabilization with CHAPS; cited from earlier work. The method, then:
as §1

The test system of data set [7] is Atg5^+/+ mouse embryonic fibroblasts cells (MEF). Nature of the data set: Cell viability (MTT) after hypoxia-reoxygenation, Atg5+/+ MEF. The note with it: 1 µM peptide from 30 min before ischemia with boosters, 3 h hypoxia, 3 h reoxygenation; n = 3 independent experiments; vs. cpp. It counts as cell-based. As for the experimental part: (§2) These experiments were performed to evaluate the possible pharmacological application of VFD7-cpp and additional selected peptides on cell viability, following an ischemic challenge. These experiments also contributed to investigate the possible biological significance of InPeps for cell viability following hypoxia-reoxygenation. Therefore, herein the effect of peptides was evaluated in wild type mouse embryonic fibroblasts cells (MEF) expressing Atg5 (Atg5^+/+) and in the MEF missing autophagy pathway due to the lack of Atg5 (Atg5^−/−); Atg5 is indispensable in both canonical and non-canonical autophagy. Atg5^+/+ and Atg5^−/− MEF were cultured in a 96-well plate in DMEM high-glucose medium supplemented with 10% FBS and 1% penicillin/streptomycin, as previously described. […] After the protocol, cell viability was measured by using tetrazolium salt 3-(4,5-Dimethylthiazol 2-yl)-2,5-diphenyltetrazolium bromide (MTT) assay; these assays measure the mitochondrial metabolic rate and indirectly reflect the viable cell numbers, which are the most commonly used method to evaluate the effect of compounds on cell viability on cultured cells. […]

Data set [8] deals with autophagy-deficient Atg5^−/− MEF cells. Nature of the data set: Cell viability (MTT) after hypoxia-reoxygenation, Atg5-/- MEF. The settings on record: 1 µM peptide from 30 min before ischemia with boosters, 3 h hypoxia, 3 h reoxygenation; n = 3 independent experiments. The data set is classed as cell-based, mouse. The method, then: as §2

As to “VFEVELLYGRKKKRRQRRR [VFE7-cpp, VFD7-cpp with D substituted to E]”, the “effect on rapamycin-induced FKBP–FRB interaction (in words)” value in data set [1] was “unable to alter rapamycin-induced FKBP–FRB interactions”.

For the substance “VFDVELLKLEYGRKKKRRQRRR [VFD10-cpp, VFD10 covalently coupled to cpp at C-terminus]”, the “effect on rapamycin-induced FKBP–FRB interaction (in words)” value in data set [1] was “unable to alter rapamycin-induced FKBP–FRB interactions”.

Regarding “VNMVPVGWASFR [random peptide used as the control in an earlier study]”, in data set [2], the “peptide recovered after internalization” value was 100%.

As to “VFDVELLKLE [VFD10, InPep … derived from FKBP12]”, the “effect on rapamycin-induced FKBP–FRB interaction (in words)” value in data set [1] is reported as “have no effect”. Besides, the “peptide concentration shown to inhibit PPI with calmodulin” value in data set [3] was 10 to 50 µM. Moreover, the “peptide concentration shown to inhibit PPI with 14-3-3 epsilon” value in data set [4] was 10 to 50 µM.

“YGRKKKRRQRRR [cpp, cell-penetrating peptide used alone as control, reference compound]”: in data set [1], the “effect on rapamycin-induced FKBP–FRB interaction (in words)” value is recorded as “have no effect”.

As for “VFDVELL [VFD7, InPep VFDVELL derived from FKBP12]”, the “effect on thimet oligopeptidase–CaM interaction (in words)” value in data set [5] is “inhibits the interaction but does not disrupt the association”. Also, the “effect on rapamycin-induced FKBP–FRB interaction (in words)” value in data set [1] is listed as “have no effect”. The “peptide concentration shown to increase cytosolic Ca2+ concentrations” value in data set [6] was 5 to 20 µM. The “peptide concentration shown to inhibit PPI with calmodulin” value in data set [3] was 10 to 50 µM. In data set [4], the “peptide concentration shown to inhibit PPI with 14-3-3 epsilon” value is 10 to 50 µM.

For “FDVELLYGRKKKRRQRRR [VFD6-cpp, FDVELL (VFD6) covalently coupled to cpp]”, the “cell viability after hypoxia-reoxygenation (MTT)” value is recorded as “increase cell viability” in data set [7] and “but not on autophagy-deficient Atg5^−/− MEF cells” in data set [8]. Further, the “peptide concentration inhibiting rapamycin-induced FKBP–FRB interaction” value in data set [1] was in the range of 1 to 500 nM.

Take “VFAVELLYGRKKKRRQRRR [VFA7-cpp, VFD7-cpp with D substituted to A]”: the “effect on rapamycin-induced FKBP–FRB interaction (in words)” value in data set [1] was “unable to alter rapamycin-induced FKBP–FRB interactions”.

For the substance “VELLYGRKKRRQRRR [VFD4-cpp, N-terminally shortened VFD7-cpp derivative]”, in data set [1], the “effect on rapamycin-induced FKBP–FRB interaction (in words)” value is “reduced potencies compared to VFD6-cpp or VFD7-cpp” and the “peptide concentration inhibiting rapamycin-induced FKBP–FRB interaction” value is reported as 500 nM.

Take “DVELLYGRKKRRQRRR [VFD5-cpp, N-terminally shortened VFD7-cpp derivative]”: in data set [1], the “effect on rapamycin-induced FKBP–FRB interaction (in words)” value is given as “reduced potencies compared to VFD6-cpp or VFD7-cpp” and the “peptide concentration inhibiting rapamycin-induced FKBP–FRB interaction” value is 500 nM.

Take “AVELLYGRKKKRRQRRR [AVE5-cpp, derived from VFD5-cpp, D to A]”: in data set [1], the “effect on rapamycin-induced FKBP–FRB interaction (in words)” value is reported as “unable to alter rapamycin-induced FKBP–FRB interactions”.

Regarding “EVELLYGRKKKRRQRRR [EVE5-cpp, derived from VFD5-cpp, D to E]”, the “effect on rapamycin-induced FKBP–FRB interaction (in words)” value in data set [1] was “unable to alter rapamycin-induced FKBP–FRB interactions”.
